We go through 11 compounds from publication PMC8776063, “Aurora Kinase A Is Involved in Controlling the Localization of Aquaporin-2 in Renal Principal Cells” (International Journal of Molecular Sciences, 2022).

Read-outs that look alike come from different tables or passages of the source. Bounds are passed on as bounds.

The target of data set [1] is T1, STK17A (Homo sapiens, UniProt Q9UEE5).
T1 construct: purchased in-house thermal shift (DSF) kinase panel (SGC Frankfurt); Promega NanoBRET for AURKA/B/C
T1 sequence (Q9UEE5 61-321): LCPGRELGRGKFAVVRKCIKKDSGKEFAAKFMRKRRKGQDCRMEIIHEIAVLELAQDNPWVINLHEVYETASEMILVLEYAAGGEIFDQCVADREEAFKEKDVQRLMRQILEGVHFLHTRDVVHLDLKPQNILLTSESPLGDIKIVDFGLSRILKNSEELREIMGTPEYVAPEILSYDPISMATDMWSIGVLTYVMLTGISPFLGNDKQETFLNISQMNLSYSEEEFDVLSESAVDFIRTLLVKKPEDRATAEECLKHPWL
Nature of the data set: Thermal shift assay. The class given is binding. The settings on record: read-out: ΔTm STK17A.

The target of data set [2] is T2, STK3 (Homo sapiens, UniProt Q13188).
T2 construct: purchased in-house thermal shift (DSF) kinase panel (SGC Frankfurt); Promega NanoBRET for AURKA/B/C
T2 sequence (Q13188 16-313): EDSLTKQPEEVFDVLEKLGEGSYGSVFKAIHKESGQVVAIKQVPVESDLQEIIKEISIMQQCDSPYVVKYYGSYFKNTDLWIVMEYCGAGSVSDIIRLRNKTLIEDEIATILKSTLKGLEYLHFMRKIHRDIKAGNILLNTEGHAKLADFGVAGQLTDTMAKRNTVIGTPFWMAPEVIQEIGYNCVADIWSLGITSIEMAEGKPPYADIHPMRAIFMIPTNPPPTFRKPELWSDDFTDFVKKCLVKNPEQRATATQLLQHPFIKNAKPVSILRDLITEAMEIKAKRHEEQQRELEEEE
Nature of the data set: Thermal shift assay. The data set is classed as binding. The settings on record: read-out: ΔTm STK3.

In data set [3] the target is T3, CAMKK2 (Homo sapiens, UniProt Q96RR4).
T3 construct: purchased in-house thermal shift (DSF) kinase panel (SGC Frankfurt); Promega NanoBRET for AURKA/B/C
T3 sequence (Q96RR4 161-449): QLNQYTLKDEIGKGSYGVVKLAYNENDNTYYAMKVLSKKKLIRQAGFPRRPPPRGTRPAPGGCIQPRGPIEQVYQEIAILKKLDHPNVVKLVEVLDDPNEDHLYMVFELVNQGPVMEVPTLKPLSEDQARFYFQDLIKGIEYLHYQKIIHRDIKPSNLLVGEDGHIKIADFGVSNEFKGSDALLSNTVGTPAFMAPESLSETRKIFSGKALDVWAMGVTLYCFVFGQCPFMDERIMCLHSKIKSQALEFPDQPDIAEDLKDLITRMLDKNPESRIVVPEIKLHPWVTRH
Nature of the data set: Thermal shift assay. The settings on record: read-out: ΔTm CAMKK2. The class given is binding.

The target in data set [4] is T4, STK39 (Homo sapiens, UniProt Q9UEW8).
T4 construct: purchased in-house thermal shift (DSF) kinase panel (SGC Frankfurt); Promega NanoBRET for AURKA/B/C
In words: Thermal shift assay. The class given is binding. The settings on record: read-out: ΔTm STK39.

Data set [5] concerns the target AURKB (Homo sapiens, UniProt Q96GD4). Nature of the data set: NanoBRET assay in HEK293T cells. The settings on record: NanoBRET. The class given is cell-based. Also noted: full-length wild-type AURKA, AURKB, and AURKC were obtained as plasmids cloned in frame with a C-terminal NanoLuc-fusion; host or cells: HEK293T. On the technique in general: In BRET a luciferase serves as donor, and the signal depends on an acceptor being close.

For data set [6], the target named is T5, AURKC (Homo sapiens, UniProt Q9UQB9).
T5 construct: full-length wild-type AURKA, AURKB, and AURKC were obtained as plasmids cloned in frame with a C-terminal NanoLuc-fusion; host or cells: HEK293T
T5 sequence (Q9UQB9 1-309): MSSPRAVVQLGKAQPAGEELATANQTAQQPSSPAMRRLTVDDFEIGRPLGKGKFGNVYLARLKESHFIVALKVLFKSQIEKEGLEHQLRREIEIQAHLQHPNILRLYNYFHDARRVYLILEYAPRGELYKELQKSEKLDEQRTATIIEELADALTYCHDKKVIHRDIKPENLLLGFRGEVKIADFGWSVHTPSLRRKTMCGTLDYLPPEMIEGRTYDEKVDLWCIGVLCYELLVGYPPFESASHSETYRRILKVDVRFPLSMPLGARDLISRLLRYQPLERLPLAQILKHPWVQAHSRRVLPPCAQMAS
In words: NanoBRET assay in HEK293T cells. The data set is classed as cell-based. The note with it: NanoBRET, Figure 6B, read-out: affinity to intracellular AURKC.

For data set [7], the target named is T6, AURKA (Homo sapiens, UniProt O14965).
T6 construct: full-length wild-type AURKA, AURKB, and AURKC were obtained as plasmids cloned in frame with a C-terminal NanoLuc-fusion; host or cells: HEK293T
T6 sequence (O14965 1-403): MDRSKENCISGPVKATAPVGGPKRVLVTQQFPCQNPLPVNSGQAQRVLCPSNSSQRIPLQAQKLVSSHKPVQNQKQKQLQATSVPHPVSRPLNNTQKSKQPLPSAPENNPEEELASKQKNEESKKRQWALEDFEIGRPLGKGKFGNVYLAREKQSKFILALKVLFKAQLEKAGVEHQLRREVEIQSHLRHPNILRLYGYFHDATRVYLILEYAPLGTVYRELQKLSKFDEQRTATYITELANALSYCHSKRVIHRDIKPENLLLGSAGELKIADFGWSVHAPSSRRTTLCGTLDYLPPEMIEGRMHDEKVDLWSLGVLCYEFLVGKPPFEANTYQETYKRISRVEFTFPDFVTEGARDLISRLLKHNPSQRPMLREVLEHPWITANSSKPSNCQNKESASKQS
Nature of the data set: NanoBRET assay in HEK293T cells. The data set is classed as cell-based. The note with it: NanoBRET.

Data set [8] relates to CFL1 phosphorylation in MCD4 cells. In words: CFL1 phosphorylation, Western blotting. The data set is classed as cell-based, mouse. The note with it: compound 30 µM, 1 h. A general note: Immunoblotting shows a protein as a band on a membrane.
Data set [9] has as its system primary IMCD cells. In words: F-actin stress fiber staining (phalloidin). The settings on record: compound 20 µM, 1 h. The class given is cell-based, rat.
In data set [10] the test system is MCD4 cells. In words: AQP2 redistribution, immunofluorescence microscopy. The note with it: compound 30 µM, 1 h (Aurora-A inhibitor I 1-30 µM), forskolin 30 µM, 30 min.
The test system of data set [11] is MCD4 cells. In words: F-actin stress fiber staining (phalloidin). The class given is cell-based, mouse. The settings on record: compound 30 µM, 1 h.
Data set [12] has as its system primary IMCD cells. Nature of the data set: AQP2 redistribution, immunofluorescence microscopy. The settings on record: compound 20 µM, 1 h (Aurora-A inhibitor I 1-30 µM), AVP 100 nM, 30 min.
The subject of data set [13] is MCD4 cells. In words: MTS assay (cell viability). The note with it: 30 µM, 10 µM or 1 µM, 1 h; compared to untreated cells. The data set is classed as cell-based, mouse. A general note: Formazan colour is commonly taken as a measure of viable cells.
The subject of data set [14] is complex of AURKA and TPX2. Also noted: method as in PMID 26732741. The note with it: cited from earlier work.
The test system of data set [15] is M12 cells. Also on record: method as in PMID 25090971. The note with it: cited from earlier work.
The mark [16] stands for this setting: HEK293T cells overexpressing the kinase, Table 2, read-out: AURKB IC50.
Where [17] appears, read: HEK293T cells overexpressing the kinase, Table 2, read-out: AURKA IC50.
Setting [18] is: n = 2, mean, Figure 6B, read-out: affinity to intracellular AURKA.

Sequence of AURKB (Q96GD4 whole entry, the tested form may be a part): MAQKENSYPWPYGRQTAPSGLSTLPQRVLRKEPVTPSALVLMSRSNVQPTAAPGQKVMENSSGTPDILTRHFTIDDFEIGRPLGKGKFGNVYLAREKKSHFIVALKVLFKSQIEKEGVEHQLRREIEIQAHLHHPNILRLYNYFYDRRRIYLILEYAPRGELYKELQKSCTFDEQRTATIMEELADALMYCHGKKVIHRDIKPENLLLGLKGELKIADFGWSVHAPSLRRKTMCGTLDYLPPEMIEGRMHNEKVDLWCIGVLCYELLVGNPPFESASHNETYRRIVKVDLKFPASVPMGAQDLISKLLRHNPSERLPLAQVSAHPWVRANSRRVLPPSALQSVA

Regarding `CN[C@@H]1C[C@H]2O[C@@](C)([C@@H]1OC)n1c3ccccc3c3c4c(c5c6ccccc6n2c5c31)C(=O)NC4` [Staurosporine, reference compound], the ΔTm at 10 µM in data set [1] was 12.9 °C; in data set [2], 13.7 °C; in data set [3], 24.2 °C; in [4] it was 9.9 °C.

As to `CCN1CCN(C(=O)Cc2ccc(Nc3ncc(F)c(Nc4ccc(C(=O)N5CCN(CC)CC5)cc4)n3)cc2)CC1` [ERJ2-13], the IC50 in data set [5] (setting [16]) was more than 50 µM; in [6] (n = 2, bounds), more than 50 µM; in data set [7] (setting [17]) it was 37.3 µM.

Consider `CCN1CCN(C(=O)Cc2ccc(Nc3ncc(F)c(Nc4ccc(C(=O)NCCN5CCCC5)cc4)n3)cc2)CC1` [ERJ2-16], for which the IC50 in data set [5] (setting [16]) is more than 50 µM; in data set [6] (n = 2, bounds), more than 50 µM; in [7] (setting [17]), more than 50 µM.

As for `O=C(O)c1ccc(Nc2ncc(F)c(Nc3ccc(C(=O)O)cc3)n2)cc1` [ERJ2-09], the IC50 in [5] (setting [16]) is more than 50 µM.

`CCN(CCO)CCCOc1ccc2c(Nc3cc(CC(=O)Nc4cccc(F)c4)n[nH]3)ncnc2c1` [Barasertib-HQPA, reference compound]: the CFL1 phosphorylation result in [8] (absence and presence of forskolin) was “no effect”. For the same compound, the “effect on actin stress fibers” value in data set [9] and in data set [11] was “resembled those of the control cells” in each case. The “inhibition of the forskolin-induced redistribution of AQP2 to the plasma membrane” value in data set [10] is “did not”. For the same compound, in data set [12], the “inhibition of the AVP-induced redistribution of AQP2 to the plasma membrane” value is listed as “No inhibitory effect”.

For `COCCNC(=O)Cc1ccc(Nc2ncc(F)c(Nc3ccc(C(=O)Nc4ccccc4Cl)cc3)n2)cc1` [ERJ2-05], the “viability of MCD4 cells” value in data set [13] is listed as “partly increased”. The IC50 in data set [5] (n = 2, mean, Figure 6B, read-out: affinity to intracellular AURKB) came to 16.8 µM; in data set [6] (n = 2, mean), 12.9 µM; in data set [7] (setting [18]), 0.24 µM.

As for `COc1cc(Nc2ncc3c(n2)-c2ccc(Cl)cc2C(c2c(F)cccc2OC)=NC3)ccc1C(=O)O` [Alisertib, reference compound], in data set [14], the “decrease of affinity for AURKA in the presence of TPX2” value was 5.8 fold. In addition, the “CFL1 phosphorylation in resting cells” value in data set [8] (no forskolin) is listed as “not reduced”. In addition, the “effect on actin stress fibers” value in [9] and in data set [11] was “promoted or maintained the formation of actin stress fibers” in each case. Further, the “inhibition of the forskolin-induced redistribution of AQP2 to the plasma membrane” value in [10] was “significantly inhibited”. The “inhibition of the AVP-induced redistribution of AQP2 to the plasma membrane” value in data set [12] is recorded as “significantly inhibited”. In addition, the “phosphorylation of CFL1” value in [15] is recorded as “increased”.

`O=C(O)Cc1ccc(Nc2ncc(F)c(Nc3ccc(C(=O)Nc4ccccc4Cl)cc3)n2)cc1` [ERJ2-02]: the IC50 in data set [5] (setting [16]) is more than 50 µM; in data set [6] (n = 2, bounds) it was more than 50 µM; in data set [7] (setting [18]), 1.33 µM.

Turning to `O=C(Cc1ccc(Nc2ncc(F)c(Nc3ccc(C(=O)Nc4ccccc4Cl)cc3)n2)cc1)NCCO` [ERJ2-08], in data set [13], the “viability of MCD4 cells” value is “partly increased”. In addition, the IC50 in data set [5] (setting [16]) was determined as 16.1 µM; in [6] (n = 2, mean), 17 µM; in data set [7] (setting [17]) it was 0.237 µM.

As for `O=C(Nc1ccccc1Cl)c1ccc(Nc2nc(Nc3ccc(CC(=O)N4CCOCC4)cc3)ncc2F)cc1` [ERJ2-03], the “viability of MCD4 cells” value in data set [13] is reported as “reduced by 10 or 30 µM”. Moreover, the “inhibition of the forskolin-induced redistribution of AQP2 to the plasma membrane” value in [10] is recorded as “not being an inhibitor”. In addition, the IC50 in data set [5] (setting [16]) is more than 50 µM; in data set [6] (n = 2, bounds), more than 50 µM; in [7] (setting [17]), 1.08 µM.

On to `O=C(O)Cc1ccc(Nc2ncc(F)c(Nc3ccc(C(=O)Nc4ccccc4)cc3)n2)cc1` [ERJ2-10], for which the IC50 in data set [5] (setting [16]) is more than 50 µM; in data set [6] (n = 2, bounds) it was more than 50 µM; in data set [7] (setting [17]) it was 22.8 µM.

The ΔTm is the change in melting temperature against a reference sample.
